# Test results: patent publication US12642870B2, “Compositions and methods for delivery of nucleic acids” (Poseida Therapeutics, Inc., priority 2020, dated 2026)
# How the values were obtained:
# [1] = Physical characterisation of mRNA-containing LNPs (DLS, NTA, zeta potential); format: physicochemical; conditions: Fluc mRNA LNPs: compound/DOPE/Cholesterol/DMG-PEG2000 41.44/45.85/10/2.7, lipid:RNA 40:1 (w/w)
# Description: A series of ten multi-component LNP compositions of the present disclosure comprising exemplary compounds of Formula (I) was prepared by combining various percentages of an exemplary compound of Formula (I), the phospholipid DOPE, the structural lipid cholesterol (Chol) and 1,2-dimyristoyl-sn-glycerol methoxypolyethylene glycol (DMG-PEG2000; Avanti Polar Lipids, Alabaster, Alabama, USA).
# Individual 25 mg/ml stock solutions were prepared by solubilizing the lipids in 200-proof HPLC-grade ethanol and stock solutions were stored at −80° C. until formulated. At the time of formulation, the lipid stock solutions were briefly allowed to equilibrate to room temp and then placed on a hot plate maintained at a temperature range of 50-55° C.
# A 1 mg/mi solution of the desired mRNA to be incorporated into the LNPs was added to 150 mM sodium acetate buffer (pH 5.2) to form a stock solution and kept on ice. The lipid phase was mixed with the aqueous m RNA phase inside a microfluidic chip using a NanoAssemblr® instrument (Precision Nanosystems, Vancouver, BC, Canada) according to the manufacturer's instructions to form LNP compositions comprising encapsulated mRNAs.
# The resultant mRNA LNP compositions were then transferred to a Repligen Float-A-Lyzer dialysis device—having a molecular weight cut off (MWCO) of 8-10 kDa (Spectrum Chemical Mfg. Corp, CA, USA) and processed by dialysis against phosphate buffered saline (PBS) (dialysate:dialysis buffer volume at least 1:200 v/v), pH 7.4 overnight at 4° C. (or alternatively room temperature for at least 4 hours), to remove the 25% ethanol and achieve a complete buffer exchange. In some experiments the LNPs were further concentrated by in an Amicon® Ultra-4 centrifugal filter unit, MWCO-30 kDa (Millipore Sigma, USA) spun at ˜4100×g in an ultracentrifuge. The mRNA LNPs were then stored at 4° C. until further use.
# A series of multicomponent LNP compositions comprising one of COMPOUNDS 1-8 described in Example 1 and the mRNA encoding flue was prepared according to Example 2 and the physical characteristics of the resulting LNPs were analyzed.
# In a separate experiment, LNP compositions of the present disclosure comprising mRNA encoding firefly luciferase (hereafter “Fluc”; TriLink) and COMPOUNDS 1-8 were prepared as described in Example 2 by combining one of COMPOUNDS 1-8, the phospholipid DOPE, the structural lipid cholesterol (Chol) and 1,2-dimyristoyl-sn-glycerol methoxypolyethylene glycol (DMG-PEG2000) in the percentages presented in Table 8: […]
# [2] = Physical characterisation of DNA-containing LNPs (DLS, NTA, zeta potential); format: physicochemical; conditions: nano-pB-EF1a-GFP DNA LNPs: compound/DOPE/Cholesterol/DMG-PEG2000 38.0/50.0/10.0/2.0, lipid:DNA 45:1 (w/w)
# Description: LNP compositions of the present disclosure comprising DNA, a nanoplasmid encoding a piggyBac transposon, wherein the piggyBac transposon comprised GFP under control of the EF1a promoter (herein referred to as the nano-pB-EF1a-GFP), and one of COMPOUNDS 1-8 were prepared as described in Example 3 by combining one of COMPOUNDS 1-8, the phospholipid DOPE, the structural lipid cholesterol (Chol) and 1,2-dimyristoyl-sn-glycerol methoxypolyethylene glycol (DMG-PEG2000) in the following percentages in Table 20: […]
# [3] = Average diameter of lipoplex nanoparticles comprising eGFP mRNA (DLS or NTA); format: physicochemical; conditions: lipoplex nanoparticles comprising eGFP mRNA and COMPOUND 1, both methods
# Description: Lipoplex nanoparticles were formulated using solvent injection method. In brief, a multivalent cationic bolaform amphiphilic lipid (4.0 mg) was dissolved in dimethyl sulfoxide (1 mL) to obtain 4 mg/mL solution. The solution was heated for 15 min at 40° C. to dissolve the lipid. DNA or mRNA (0.040 mg) was diluted with 50 mM Sodium acetate buffer (2 mL, pH 5.5) to obtained 0.02 mg/mL solution. Bolamphiphile lipid solution (0.4 mg, 100 p1) was injected in DNA or mRNA solution (0.04 mg, 2 mL) under constant sonication. The mass ratio of […] was kept constant to 10 for all the bolamphiphile formulation. The sonication was continued for 5 min. The solution was dialyzed (MWCO 30 kDa) for 4-6 hours in PBS (1×, pH 7.4) at room temperature. Sample was concentrated using Amicon centrifuge tube (30 kDa) to get the desired concentration for subsequent in vivo or in vitro use.
# Lipoplex nanoparticles were prepared comprising mRNA encoding eGFP using COMPOUND 1 according to the method above and the average diameter of the resulting nanoparticles was determined by DLS or NTA. Both methods yielded average diameters of about 120 nm and the presence of RNA in the nanoparticle was confirmed by gel electrophoresis as described in Example 3.
# [4] = Agarose gel electrophoresis for nucleic acid incorporation; format: physicochemical; conditions: 1% agarose gel, SYBR Safe, naked mRNA control
# Description: The LNP compositions were analyzed to verify the presence of mRNA. An aliquot of each of the LNP compositions was loaded on to a 1% agarose gel with a size standard and naked mRNA control, subject to electrophoresis and the presence of mRNA was detected by exposure of ultraviolet light to excite the fluorophore (SYBR Safe) which is complexed with nucleic acid. The free mRNA migrated in the gel in accordance with its molecular weight whereas all of the mRNA-containing LNP compositions remained at the interface of the agarose gel and the well with little to no detectable free mRNA indicating the LNP compositions comprising COMPOUND 1 of Example 1 were capable of incorporating mRNA.
# HEK293T cells [5] = test: In vitro LNP delivery of eGFP mRNA to adherent cells; format: cell-based; conditions: 0.125 μg eGFP mRNA per well, 24 hr, flow cytometry, LNP 41.44/45.85/10.0/2.7, lipid:RNA 40:1
# Description: HEK293T cells were seeded in 96 well plates and grown to 70% confluence in DMEM+10% FBS] under a 5% CO2 atmosphere at 37° C. A 0.125 μg amount of 5′-CleanCap-eGFP mRNA (TriLink Biotech) formulated with LNP compositions comprising COMPOUNDS 1-4 as prepared in Example 3 at the following percentages in Table 10 was added to each well.
# After incubating for 24 hr, cells were imaged for GFP expression with a Leica fluorescence microscope and then detached from 96 well plate to quantitate expression by flow cytometry.
# Resting T-cells [6] = test: LNP delivery of eGFP mRNA to resting T-cells; format: cell-based; conditions: eGFP mRNA LNPs 0.4144:0.4585:0.1:0.027, lipid:nucleic acid 40:1, 0.5 ug mRNA per well, 24 hrs
# Description: In one experiment, LNPs of the present disclosure comprising one of COMPOUNDS 1-4, DOPE, Cholesterol and DMG-PEG2000 at a molar ratio of 0.4144:0.4585:0.1:0.027 and further comprising Cleancap mRNA encoding eGFP were formed on a NanoAssemblr® (Precision Nanosystems). […] Resting T-cells were treated with varying amounts of the four LNP composition and at 24 hrs, the cells were analyzed to determine the percentage of cells that were viable and that expressed […]. The results of the analysis are shown in Table 12 for a dose of 0.5 ug mRNA per well.
# Resting T-cells [7] = test: LNP delivery of nano-pB-EF1a-GFP DNA to resting T-cells; format: cell-based; conditions: nano-pB-EF1a-GFP DNA LNPs 0.38:0.5:0.1:0.02, lipid:nucleic acid 45:1, 24 hr
# Source text: The experiments described in this example used CD4/CD8 positive T-cells isolated from a leukapheresis product from a healthy donor.
# HEK293T cells [8] = test: In vitro lipoplex nanoparticle delivery of eGFP mRNA to adherent cells; format: cell-based
# Description: HEK293T cells were seeded in 96 well plates and grown to 70% confluence in [DMEM+10% FBS under a 5% CO2 atmosphere at 37° C. Lipoplex nanoparticles comprising COMPOUND 1 and 0.007, 0.03, 0.125, and 0.50 μg mRNA encoding eGFP were added to the cells. Following incubation with the lipoplex nanoparticles, cells were assessed for GFP expression by epifluorescence microscopy and flow cytometry.
structure (smiles),measurement,setting,value
CC(C)C(CCC(C)C(CCC1CCC(C(=O)NCCCCCCNC(=O)C2CCC(CCC(SCCN(C)C)C(C)CCC(SCCN(C)C)C(C)C)C(SCCN(C)C)C2)CC1SCCN(C)C)SCCN(C)C)SCCN(C)C (stereo not shown) [Compound 1],Diameter (DLS; nm),[1],155.1 nm
same,Diameter (NTA; nm),[1],126.5 nm
same,PDI,[1],0.174
same,Total Particles/ml,[1],1.66E+11 Particles/ml
same,Zeta Potential (mV),[1],1.41 mV
same,Diameter (DLS; nm),[2],123.5 nm
same,Diameter (NTA; nm),[2],96.9 nm
same,PDI,[2],0.17
same,Total Particles/ml,[2],5.76E+11 Particles/ml
same,Zeta Potential (mV),[2],0.67 mV
same,average diameter of lipoplex nanoparticles,[3],about 120 nm
same,incorporation of mRNA into the nanoparticle compositions by gel electrophoresis,[4],confirmed
same,% Viable GFP+,HEK293T cells [5],23.5%
same,% Viable GFP+,Resting T-cells [6],9.5%
same,% Viable GFP+,Resting T-cells [7],35.2%
same,% GFP,"HEK293T cells [8]; lipoplex nanoparticles comprising COMPOUND 1, 0.007 μg mRNA",0.99%
same,% GFP,"HEK293T cells [8]; lipoplex nanoparticles comprising COMPOUND 1, 0.03 μg mRNA",7.37%
same,% GFP,"HEK293T cells [8]; lipoplex nanoparticles comprising COMPOUND 1, 0.125 μg mRNA",30.1%
same,% GFP,"HEK293T cells [8]; lipoplex nanoparticles comprising COMPOUND 1, 0.50 μg mRNA",56.1%
